According to patent publication US7270833B2, “Cardioplegic solution” (Jolife AB, priority 2000, dated 2007):

How the values were obtained:
[1] = system: pigs with ventricular fibrillation; assay: Potassium chloride cardioplegia during heart compressions in pigs with induced ventricular fibrillation; assay type: in vivo, pig; details: for development of stone heart: pigs, induced ventricular fibrillation, continuous infusion of potassium chloride, heart compressions for 1 hour
Method: Due to the access to the new external chest compression machine, “Lucas”, we have run extensive experiments in pigs. Until now we have run experiments in 5 years and used over 800 pigs. This new machine is much more efficient than manual compression of the chest. About 30% of the pigs with ventricular fibrillation survived 1 hour of external heart massage with the machine in normothermia. With manual compression no pigs survived 15 minutes. […] We noticed that this started to happen after 15 minutes.
The idea then came up that if cardioplegia is induced to the heart during heart arrest, it would be possible to eliminate this stone heart condition and make 100% of the hearts survive 60 minutes of heart compression. In clinical heart surgery we routinely use potassium to accomplish depolarisation and cardioplegia. We induced ventricular fibrillation in pigs and then induced cardioplegia in the form of potassium chloride into a central venous needle or even directly into the left ventricle, thereby inducing cardioplegia. By a continuous infusion of potassium chloride we kept the heart in a cardioplegic condition. […] After 60 minutes we cannulated the pig in the femoral artery and vein and established an extracorporeal membrane oxygenation (ECMO). […] When cardioplegia is induced in a heart at normotermia, 90% of the need for oxygen is eliminated, and the heart is arrested in a relaxed condition. Such a heart is very easy to perform external or internal heart massage on.

[2] = system: pigs with electrically induced ventricular fibrillation; assay: Internal cardiopulmonary resuscitation by continuous left ventricle infusion of potassium chloride, followed by V-A ECMO; assay type: in vivo
Method: The purpose of the experiment was to evaluate the effects of continuous potassium chloride infusion during internal CPR with a catheter inserted into the left ventricle and to investigate the need for ECMO (extracorporeal membrane oxygenation) after high dose potassium chloride treatment during CPR, to obtain return of ROSC after prolonged CPR.
The haemodynamic parameters continuously was measured and stored as mean values every 5 second. Blood gases was analyzed with a Radiometer™ ABL 555® blood gas machine. Drug administration (Addex® potassium 4 mmol/ml, Fresenius Kabi, Uppsala, Sweden. 40 mg/ml papaverin, NM Pharma, Stockholm, Sweden.) during CPR was given according a specific protocol.
The following data parameters were measured and stored as mean values every 5 seconds throughout the experiment:
ECG, arterial pressure (SAP/MAP/DAP), central venous pressure (CVP), coronary perfusion pressure (CPP), carotid flow (CF), temperature, urine production (every 15 min), and blood gases.
The blood gas (Radiometer™, ABL 555®) data parameter were measured and stored intermittently or written down by hand throughout the experiment.
Electrically ventricular fibrillation was induced electrically in healthy test pigs (25-80 kg in body weight) at normothermic conditions (a body temperature of 38° C.). After 90 seconds of untreated ventricular fibrillation internal heart massage started manually and continued for 60 min. At the same time a booster injection of 10 ml potassium (Addex® potassium 4 mmol/ml, Fresenius Kabi, Uppsala, Sweden) and 3 ml papaverin sulfate (Papaverin 40 mg/ml, NM Pharma, Stockholm, Sweden) was given. Directly after a potassium infusion (Addex® potassium 4 mmol/ml, Fresenius Kabi, Uppsala, Sweden) was started (100 ml/h for 20 min, 50 ml/h for 20 min, 20 ml/h for 20 min). […] After 60 minutes of resuscitation V-A (venoarterial) ECMO was established and by ultrafiltration the serum potassium ion concentration was reduced towards normal levels.
After the 6-hour test period, the animal was put to death with a euthanasia solution.

**Q.** `[Cl-].[K+]` [potassium chloride] was tested. Which “return of spontaneous heart beat after potassium chloride washed away by filtration” value ([1]; after 60 minutes of heart compressions, ECMO via femoral artery and vein) did it give?
**A.** the heart started to beat spontaneously again

**Q.** And the “recovery of hearts after heart massage” value ([1]; experimental animal with acute ventricular fibrillation, after one hour of heart massage)?
**A.** possible to recover all hearts

**Q.** And the “development of stone heart” value [1]?
**A.** without the development of stone heart

**Q.** What about the “development of stone heart” value ([1]; listed as potassium) of the same compound?
**A.** eliminates the development of stone heart

**Q.** What about the “Event: heart beating” value ([2]; 25 kg Swedish domestic pig, Exp. Time 2:22:01, after stop K at 2:18:38, on bypass) of the same compound?
**A.** spontaneously

**Q.** And the “Event: urine production” value ([2]; 25 kg Swedish domestic pig, Exp. Time 4:29:33, after off bypass at 3:42:43)?
**A.** normal urine

**Q.** And the “heart rhythm / ROSC” value ([2]; after 1 h of CPR in combination with potassium administration followed by ECMO, FIG. 1)?
**A.** ROSC came into effect
